Our source for the IC50 values is patent US20250034125A1, “COMPOUNDS AND USES THEREOF” (JANSSEN PHARMACEUTICA NV, priority 2019, published 2025).

The target in test [1] is T1, SCD1 (Homo sapiens, UniProt O00767).
T1 construct: host or cells: Saccharomyces cerevisiae ole1Δ strain (W303 pdr1Δ pdr3Δ background), plasmid pRS316, TDH3 promoter
T1 sequence (O00767 1-359): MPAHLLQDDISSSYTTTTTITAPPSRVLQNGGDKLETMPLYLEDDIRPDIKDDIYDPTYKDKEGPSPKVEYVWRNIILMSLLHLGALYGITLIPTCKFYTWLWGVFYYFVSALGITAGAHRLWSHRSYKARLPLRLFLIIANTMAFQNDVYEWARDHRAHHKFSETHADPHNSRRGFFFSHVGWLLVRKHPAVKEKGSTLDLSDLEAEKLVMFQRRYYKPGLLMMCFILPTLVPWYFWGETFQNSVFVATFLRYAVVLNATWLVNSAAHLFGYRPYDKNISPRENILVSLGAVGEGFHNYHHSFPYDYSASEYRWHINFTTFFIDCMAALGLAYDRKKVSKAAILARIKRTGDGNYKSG
Nature of the test: Growth inhibition of yeast (ole1Δ) expressing human SCD1 as the sole desaturase. In kind it is cell-based.

In test [2] the target is T2, SCD5 (Homo sapiens, UniProt Q86SK9).
T2 construct: host or cells: Saccharomyces cerevisiae ole1Δ strain (W303 pdr1Δ pdr3Δ background), plasmid pRS316, TDH3 promoter
T2 sequence (Q86SK9 1-330): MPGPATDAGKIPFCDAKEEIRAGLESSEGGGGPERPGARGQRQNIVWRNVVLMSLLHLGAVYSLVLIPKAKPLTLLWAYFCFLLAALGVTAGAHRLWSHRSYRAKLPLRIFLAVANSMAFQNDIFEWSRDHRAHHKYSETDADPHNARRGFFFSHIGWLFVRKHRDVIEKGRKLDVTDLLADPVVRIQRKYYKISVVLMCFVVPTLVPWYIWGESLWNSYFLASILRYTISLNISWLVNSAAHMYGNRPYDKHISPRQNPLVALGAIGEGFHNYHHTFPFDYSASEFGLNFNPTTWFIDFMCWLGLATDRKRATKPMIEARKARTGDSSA
Nature of the test: Growth inhibition of yeast (ole1Δ) expressing human SCD5 as the sole desaturase. In kind it is cell-based.

Where [3] appears, read: yeast strain with SCD1 plasmid, OD600 growth read at 40 h, read-out: SCD1 IC50.
Setting [4] is: yeast strain with SCD5 plasmid, OD600 growth read at 40 h, read-out: SCD5 IC50.

Read-outs that look alike come from different tables or passages of the source. A value given as a limit tells only on which side of the number the result lay.

`O=c1ccc(-c2noc(N3CCC(Cc4ccc(F)c(F)c4)CC3)n2)c[nH]1` [Compound 1]: the IC50 was found to be 14000 nM in test [1] (setting [3]) and 3800 nM in test [2] (setting [4]). Taken in the same sequence, the figures for `O=c1ccc(-c2noc(N3CCC(Cc4cc(F)cc(F)c4)CC3)n2)c[nH]1` [Compound 2] were more than 45000 nM and more than 45000 nM. `Cn1cc(NC(=O)N2CCC(Cc3cc(F)cc(F)c3)C2)ccc1=O` (stereo not drawn) [Compound 3, 3-(3,5-difluorobenzyl)-N-(1-methyl-6-oxo-1,6-dihydropyridin-3-yl)pyrrolidine-1-carboxamide]: the IC50 in test [1] (setting [3]) was found to be 11300 nM; in test [2] (setting [4]), 20700 nM.

For the compound `Cn1cc(CC(=O)N2CCC(Cc3cccc(Cl)c3)CC2)ccc1=O` [Compound 4, 5-(2-(4-(3-chlorobenzyl)piperidin-1-yl)-2-oxoethyl)-1-methylpyridin-2(1H)-one], the values for the IC50 in test [1] (setting [3]) and in test [2] (setting [4]) were more than 45000 nM and 24700 nM, respectively. On to `Cn1cc(CC(=O)N2CCC(Oc3cccc(Cl)c3)CC2)ccc1=O` [Compound 5, 5-(2-(4-(3-chlorophenoxy)piperidin-1-yl)-2-oxoethyl)-1-methylpyridin-2(1H)-one], for which the IC50 in test [1] (setting [3]) and in test [2] (setting [4]) was more than 45000 nM in each case.

As to `Cn1cc(NC(=O)N2CCC(Cc3ccc(F)c(F)c3)CC2)ccc1=O` [Compound 7], the IC50 in test [1] (setting [3]) was more than 45000 nM; in test [2] (setting [4]) it was 5010 nM. As for `Cn1cc(NC(=O)N2CCC(Cc3cc(F)cc(Cl)c3)CC2)ccc1=O` [Compound 8, 4-(3-chloro-5-fluorobenzyl)-N-(1-methyl-6-oxo-1,6-dihydropyridin-3-yl)piperidine-1-carboxamide], the IC50 in test [1] (setting [3]) came out at 2320 nM; in test [2] (setting [4]), 830 nM. Consider `Cn1cc(NC(=O)N2CCC(Cc3cc(F)ccc3F)CC2)ccc1=O` [Compound 10], for which the IC50 in test [1] (setting [3]) and in test [2] (setting [4]) was more than 45000 nM in each case.

For `Cn1cc(NC(=O)N2CCC(Nc3cc(F)cc(F)c3)CC2)ccc1=O` [Compound 11, 4-(3,5-difluorophenylamino)-N-(1-methyl-6-oxo-1,6-dihydropyridin-3-yl)piperidine-1-carboxamide], the IC50 in test [1] and in test [2] was more than 45000 nM throughout. As for `Cn1cc(-c2nc(N3CCC(Oc4cc(F)cc(F)c4)CC3)no2)ccc1=O` [Compound 15, 5-(3-(4-(3,5-difluorophenoxy)piperidin-1-yl)-1,2,4-oxadiazol-5-yl)-1-methylpyridin-2(1H)-one], the IC50 in test [1] (setting [3]) turned out to be 12400 nM; in test [2] (setting [4]) it was 860 nM. As to `Cn1cc(-c2nc(N3CCC(Oc4cccc(F)c4Cl)CC3)no2)ccc1=O` [Compound 16, 5-(3-(4-(2-chloro-3-fluorophenoxy)piperidin-1-yl)-1,2,4-oxadiazol-5-yl)-1-methylpyridin-2(1H)-one], the IC50 stood at 350 nM in test [1] (setting [3]) and 590 nM in test [2] (setting [4]). Regarding `Cn1cc(-c2nc(N3CCC(Cc4cc(F)cc(F)c4)CC3)no2)ccc1=O` [Compound 17, 5-(3-(4-(3,5-difluorobenzyl)piperidin-1-yl)-1,2,4-oxadiazol-5-yl)-1-methylpyridin-2(1H)-one], the IC50 in test [1] (setting [3]) worked out at 720 nM; in test [2] (setting [4]), 10 nM. As for `Cn1cc(-c2nnc(N3CCC(Cc4cccc(F)c4)CC3)o2)ccc1=O` [Compound 18, 5-(5-(4-(3-fluorobenzyl)piperidin-1-yl)-1,3,4-oxadiazol-2-yl)-1-methylpyridin-2(1H)-one], the half-maximal inhibitory concentration (IC50) in test [1] (setting [3]) was more than 45000 nM; in test [2] (setting [4]) it was 1930 nM. Consider `Cn1cc(-c2nnc(N3CCC(Cc4cc(F)cc(F)c4)CC3)o2)ccc1=O` [Compound 19, 5-(5-(4-(3,5-difluorobenzyl)piperidin-1-yl)-1,3,4-oxadiazol-2-yl)-1-methylpyridin-2(1H)-one], for which the figures for the IC50 in test [1] (setting [3]) and in test [2] (setting [4]) were 9720 nM and 1000 nM, respectively.

For `Cn1cc(-c2noc(N3CCC(Cc4ccc(F)c(F)c4)CC3)n2)ccc1=O` [Compound 20, 5-(5-(4-(3,4-difluorobenzyl)piperidin-1-yl)-1,2,4-oxadiazol-3-yl)-1-methylpyridin-2(1H)-one], the IC50 was determined as 2700 nM in test [1] (setting [3]) and 1400 nM in test [2] (setting [4]). In the case of `Cn1cc(-c2noc(N3CCC(Cc4cc(F)cc(F)c4)CC3)n2)ccc1=O` [Compound 21, 5-(5-(4-(3,5-difluorobenzyl)piperidin-1-yl)-1,2,4-oxadiazol-3-yl)-1-methylpyridin-2(1H)-one], the half-inhibitory concentration (IC50) in test [1] (setting [3]) was determined as 10000 nM; in test [2] (setting [4]) it was 3000 nM. Taken in the same sequence, the figures for `Cn1nc(NC(=O)N2CC(Cc3cccc(Cl)c3)C2)ccc1=O` [Compound 22, 3-(3-chlorobenzyl)-N-(1-methyl-6-oxo-1,6-dihydropyridazin-3-yl)azetidine-1-carboxamide] were 2590 nM and 950 nM. For `Cn1nc(NC(=O)N2CC(Oc3ccc(F)c(F)c3)C2)ccc1=O` [Compound 23, 3-(3,4-difluorophenoxy)-N-(1-methyl-6-oxo-1,6-dihydropyridazin-3-yl)azetidine-1-carboxamide], the IC50 in test [1] (setting [3]) was found to be 1300 nM; in test [2] (setting [4]), 1800 nM. Turning to `Cn1nc(NC(=O)N2CC(Oc3cc(F)cc(F)c3)C2)ccc1=O` [Compound 24, 3-(3,5-difluorophenoxy)-N-(1-methyl-6-oxo-1,6-dihydropyridazin-3-yl)azetidine-1-carboxamide], the half-inhibitory concentration (IC50) in test [1] (setting [3]) worked out at 1100 nM; in test [2] (setting [4]) it was 2900 nM.

In the case of `Cn1nc(NC(=O)N2CCC(Cc3cccc(Cl)c3)C2)ccc1=O` (stereo not drawn) [Compound 25, 3-(3-chlorobenzyl)-N-(1-methyl-6-oxo-1,6-dihydropyridazin-3-yl)pyrrolidine-1-carboxamide], the IC50 in test [1] (setting [3]) is 2750 nM; in test [2] (setting [4]), 5290 nM. As to `Cn1nc(NC(=O)N2CCC(Cc3cc(F)cc(F)c3)C2)ccc1=O` (stereo not drawn) [Compound 26, 3-(3,5-difluorobenzyl)-N-(1-methyl-6-oxo-1,6-dihydropyridazin-3-yl)pyrrolidine-1-carboxamide], the IC50 was found to be 4150 nM in test [1] (setting [3]) and 5680 nM in test [2] (setting [4]). Turning to `Cn1nc(NC(=O)N2CC[C@@H](Oc3ccc(F)c(F)c3)C2)ccc1=O` [Compound 27, (3R)-3-(3,4-difluorophenoxy)-N-(1-methyl-6-oxo-1,6-dihydropyridazin-3-yl)pyrrolidine-1-carboxamide], the IC50 in test [1] (setting [3]) was 17000 nM; in test [2] (setting [4]), more than 45000 nM. Take `Cn1nc(NC(=O)N2CC[C@@H](Oc3cc(F)cc(F)c3)C2)ccc1=O` [Compound 28, (3R)-3-(3,5-difluorophenoxy)-N-(1-methyl-6-oxo-1,6-dihydropyridazin-3-yl)pyrrolidine-1-carboxamide]: the half-inhibitory concentration (IC50) in test [1] (setting [3]) was 8100 nM; in test [2] (setting [4]) it was more than 45000 nM. In the case of `Cn1nc(NC(=O)N2CC[C@H](Oc3ccc(F)c(F)c3)C2)ccc1=O` [Compound 29, (3S)-3-(3,4-difluorophenoxy)-N-(1-methyl-6-oxo-1,6-dihydropyridazin-3-yl)pyrrolidine-1-carboxamide], the IC50 in test [1] (setting [3]) is 420 nM; in test [2] (setting [4]) it was 2800 nM. As for `Cn1nc(NC(=O)N2CC[C@H](Oc3cc(F)cc(F)c3)C2)ccc1=O` [Compound 30, (3S)-3-(3,5-difluorophenoxy)-N-(1-methyl-6-oxo-1,6-dihydropyridazin-3-yl)pyrrolidine-1-carboxamide], the 50% inhibitory concentration (IC50) in test [1] (setting [3]) is 330 nM; in test [2] (setting [4]) it was 2900 nM.

Regarding `Cn1nc(-c2nc(N3CCC(Cc4cccc(F)c4)CC3)no2)ccc1=O` [Compound 114, 6-(3-(4-(3-fluorobenzyl)piperidin-1-yl)-1,2,4-oxadiazol-5-yl)-2-methylpyridazin-3(2H)-one], the IC50 in test [2] (setting [4]) worked out at 10 nM.
